Measurements from US7557092B2, “Purinergic modulation of smell” (University of Utah Research Foundation, priority 2002, dated 2009).
Like-named read-outs stand apart in the source and are kept apart here.

Columns and labels:
[1] = test system: ORNs in mouse olfactory epithelium slices; assay: confocal calcium imaging of fluo-4 AM loaded olfactory epithelium slices, ORNs; format: cell-based; conditions: for evoked calcium transients in olfactory epithelial slices: superfused onto olfactory epithelial slices (ORNs and sustentacular cells); for agonist-evoked calcium transients in ORNs: 10 μM agonist superfused onto slice
Excerpt: (§1) To study the effects of ATP on odor responses, acutely prepared slices of mouse olfactory epithelium were used. Confocal imaging of fluo-4 AM-loaded olfactory epithelium slices allows simultaneous recording from identified structures within the olfactory epithelium, i.e., both ORNs and sustentacular cells. […] The difference in robustness can be due to poor access to the ATP stimulus: odorant receptors are on the cilia of the ORNs, which extend beyond the outer edge of the olfactory epithelium, whereas purinergic receptors are located deeper within the olfactory epithelium. […] The latency of activation for the ATP-evoked calcium transient was shorter in the ORN (FIG. 3B2, solid up arrowhead) than in sustentacular cells (FIG. 3B3, open down arrowhead). Collectively, this was consistent with ORNs expressing the faster P2X receptors, and the sustentacular cells expressing the slower G-protein coupled P2Y receptors.
(§2) To prepare olfactory epithelium slices, neonatal mice (postnatal day 0-6) were quickly decapitated, and the skin and lower jaw were removed. Tissue was mounted in ice cold Ringers onto a vibratome-cutting block and 300 μm slices were made. Primary cultures of mouse ORNs were made using the same protocol and culture conditions as described for rat olfactory receptor neurons (Vargas and Lucero, 1999a). Briefly, tissue was placed in divalent cation-free Ringers containing 10 mg/ml bovine serum albumin, 1 mg/ml deoxyribonuclease II and 44 U/ml dispase, incubated at 37° C. for 45 min. The tissue was washed, triturated, and filtered through a […] mesh and […] cells were plated onto concanavalin A-coated coverslips and allowed to settle for 20 min. An additional 1.5 ml of culture medium was added (DMEM supplemented with […] ascorbic acid, 1X insulin-transferrin-seleniumX (GIBCO BRL), 2 mM glutamine, 100 U/ml penicillin G and […] streptomycin).
(§3) [Ca^2+]i was determined using confocal imaging of fluo-4 AM (18 μM; Molecular Probes) loaded cells and slices. Cells or slices were placed in a laminar flow chamber (Warner Instruments) and perfused continuously with Ringers solution at a flow rate of 1.5-2.0 ml/min. Ringers contained (mM): 140 NaCl, 5 KCl, 1 MgCl2, 2 CaCl2, 10 HEPES, 10 glucose, […] and 400 nM tetrodotoxin. Test solutions were applied using bath exchange and a small volume loop injector (200 μl). A Zeiss LSM 510 confocal laser scanning system was used for data collection and analysis. Time series experiments were performed collecting 1400×700 pixel images at 0.2-0.4 Hz. The fluorometric signals obtained are expressed as relative fluorescence change, ΔF/F═(F−F0)/F0, where F0 is the basal fluorescence level. Increases in F greater than 10% above baseline noise were considered responses.

[2] = test system: sustentacular cells in mouse olfactory epithelium slices; assay: confocal calcium imaging of fluo-4 AM loaded olfactory epithelium slices, sustentacular cells; format: cell-based; conditions: for agonist-evoked calcium transients in sustentacular cells: 10 μM agonist superfused onto slice
Excerpt: as §1, §2, §3

[3] = molecular target: T1, P2Y11 (Homo sapiens, UniProt Q96G91); conditions: cDNA from Human placenta; cited from earlier work
T1 sequence (Q96G91 1-374): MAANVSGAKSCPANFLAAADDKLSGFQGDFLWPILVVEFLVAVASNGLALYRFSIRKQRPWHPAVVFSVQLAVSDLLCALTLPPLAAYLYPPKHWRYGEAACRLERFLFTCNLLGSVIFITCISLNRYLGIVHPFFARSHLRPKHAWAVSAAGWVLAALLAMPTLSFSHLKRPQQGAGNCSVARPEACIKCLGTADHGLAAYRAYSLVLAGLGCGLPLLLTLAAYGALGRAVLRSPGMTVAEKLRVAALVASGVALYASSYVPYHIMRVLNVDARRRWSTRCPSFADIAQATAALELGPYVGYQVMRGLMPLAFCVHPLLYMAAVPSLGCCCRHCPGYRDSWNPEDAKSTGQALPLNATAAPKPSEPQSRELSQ

[4] = molecular target: T2, P2X6 (Rattus norvegicus, UniProt P51579); conditions: cDNA from Rat superior cervical ganglion; cited from earlier work
T2 construct: host or cells: Xenopus oocytes

[5] = molecular target: T3, P2X4 (Rattus norvegicus, UniProt P51577); conditions: cDNA from Rat superior cervical ganglion; cited from earlier work
T3 construct: host or cells: Xenopus oocytes
T3 sequence (P51577 1-388): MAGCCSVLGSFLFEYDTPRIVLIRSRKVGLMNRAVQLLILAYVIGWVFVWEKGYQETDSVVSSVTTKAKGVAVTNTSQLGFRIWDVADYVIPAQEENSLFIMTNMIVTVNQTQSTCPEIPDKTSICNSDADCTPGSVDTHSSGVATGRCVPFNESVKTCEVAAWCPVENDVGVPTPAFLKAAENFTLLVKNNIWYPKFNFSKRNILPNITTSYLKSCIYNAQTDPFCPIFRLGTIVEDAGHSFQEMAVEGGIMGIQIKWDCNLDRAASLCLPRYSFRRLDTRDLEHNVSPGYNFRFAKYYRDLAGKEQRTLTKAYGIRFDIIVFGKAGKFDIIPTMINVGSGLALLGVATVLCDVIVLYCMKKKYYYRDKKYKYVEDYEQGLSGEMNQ

[6] = molecular target: P2Y1 (Rattus norvegicus, UniProt P49651); conditions: cited from earlier work
[7] = molecular target: T4, P2X2 (Rattus norvegicus, UniProt P49653); conditions: cDNA from Rat PC12 cells; cited from earlier work
T4 construct: host or cells: Xenopus oocytes
T4 sequence (P49653 1-472): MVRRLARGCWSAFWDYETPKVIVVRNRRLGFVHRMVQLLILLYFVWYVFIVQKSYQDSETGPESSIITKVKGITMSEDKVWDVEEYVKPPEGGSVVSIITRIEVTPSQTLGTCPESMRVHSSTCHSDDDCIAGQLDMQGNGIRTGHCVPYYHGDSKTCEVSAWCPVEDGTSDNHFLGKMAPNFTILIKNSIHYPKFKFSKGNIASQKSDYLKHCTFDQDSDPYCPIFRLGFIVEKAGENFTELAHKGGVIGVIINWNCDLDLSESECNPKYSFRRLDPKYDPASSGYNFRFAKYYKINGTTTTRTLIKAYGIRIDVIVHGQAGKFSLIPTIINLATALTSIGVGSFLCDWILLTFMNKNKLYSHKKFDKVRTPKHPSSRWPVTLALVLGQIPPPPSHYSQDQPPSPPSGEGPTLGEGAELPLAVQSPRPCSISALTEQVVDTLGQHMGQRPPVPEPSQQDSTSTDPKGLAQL

[8] = molecular target: T5, P2X5 (Rattus norvegicus, UniProt P51578); conditions: cDNA from Rat ganglia; cited from earlier work
T5 construct: host or cells: Xenopus oocytes
T5 sequence (P51578 1-455): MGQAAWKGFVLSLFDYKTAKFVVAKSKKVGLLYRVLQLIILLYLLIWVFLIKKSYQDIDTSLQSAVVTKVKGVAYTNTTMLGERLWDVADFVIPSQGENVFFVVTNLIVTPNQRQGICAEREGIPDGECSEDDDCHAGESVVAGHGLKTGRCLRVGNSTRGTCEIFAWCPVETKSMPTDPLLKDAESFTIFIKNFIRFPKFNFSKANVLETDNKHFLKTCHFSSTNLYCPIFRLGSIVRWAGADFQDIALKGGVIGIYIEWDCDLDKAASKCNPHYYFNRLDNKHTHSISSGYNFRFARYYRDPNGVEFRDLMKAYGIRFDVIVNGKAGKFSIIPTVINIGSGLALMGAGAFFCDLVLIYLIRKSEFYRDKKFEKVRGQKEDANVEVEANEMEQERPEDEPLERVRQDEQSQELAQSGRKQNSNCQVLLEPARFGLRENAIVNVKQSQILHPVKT

[9] = test system: odor responses of mouse ORNs in olfactory epithelium slices; assay: co-application of odor and purinergic receptor agonist, calcium transients in olfactory epithelium slices; format: cell-based
[10] = molecular target: T6, P2X7 (Rattus norvegicus, UniProt Q64663); conditions: cDNA from Rat macrophage and brain; cited from earlier work
T6 construct: host or cells: Xenopus oocytes
T6 sequence (Q64663 1-595): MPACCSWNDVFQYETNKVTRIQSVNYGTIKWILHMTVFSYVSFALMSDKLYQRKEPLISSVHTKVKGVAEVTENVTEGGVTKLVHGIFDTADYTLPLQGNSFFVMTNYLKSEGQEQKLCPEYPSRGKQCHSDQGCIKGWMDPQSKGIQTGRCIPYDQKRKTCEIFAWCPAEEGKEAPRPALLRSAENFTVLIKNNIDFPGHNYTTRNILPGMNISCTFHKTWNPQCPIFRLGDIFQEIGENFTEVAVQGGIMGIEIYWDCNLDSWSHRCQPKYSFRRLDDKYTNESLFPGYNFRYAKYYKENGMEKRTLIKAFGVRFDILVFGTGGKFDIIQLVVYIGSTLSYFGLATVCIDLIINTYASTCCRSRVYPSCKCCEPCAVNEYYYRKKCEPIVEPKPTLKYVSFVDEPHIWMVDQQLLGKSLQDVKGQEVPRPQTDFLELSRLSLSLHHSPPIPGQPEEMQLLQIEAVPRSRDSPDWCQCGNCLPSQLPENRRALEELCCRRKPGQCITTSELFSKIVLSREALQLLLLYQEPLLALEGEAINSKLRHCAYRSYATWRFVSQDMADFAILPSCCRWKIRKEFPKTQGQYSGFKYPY

[11] = molecular target: P2Y1 (Gallus gallus, UniProt P34996); conditions: cDNA from Chick brain; cited from earlier work
[12] = molecular target: P2Y1 (Meleagris gallopavo, UniProt P49652); conditions: cDNA from Turkey brain; cited from earlier work
[13] = ORNs, PPADS 25 μm, reversible, n=5
[14] = sustentacular cells, PPADS, n=30
[15] = co-application of 10 μM βγ-methylene ATP and odor, 2/16 cells

Sequence of P2Y1 (Rattus norvegicus, UniProt P49651) (P49651 whole entry): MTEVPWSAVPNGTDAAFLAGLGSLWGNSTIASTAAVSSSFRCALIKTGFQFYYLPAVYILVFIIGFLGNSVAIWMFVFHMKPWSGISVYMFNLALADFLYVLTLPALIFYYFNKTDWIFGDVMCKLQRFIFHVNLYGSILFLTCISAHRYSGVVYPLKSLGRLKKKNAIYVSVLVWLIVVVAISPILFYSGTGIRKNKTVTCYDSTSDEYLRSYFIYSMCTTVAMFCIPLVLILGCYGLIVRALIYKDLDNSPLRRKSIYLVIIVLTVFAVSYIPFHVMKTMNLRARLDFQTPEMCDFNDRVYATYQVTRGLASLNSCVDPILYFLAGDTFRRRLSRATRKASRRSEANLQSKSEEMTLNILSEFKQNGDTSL
Sequence of P2Y1 (Gallus gallus, UniProt P34996) (P34996 whole entry): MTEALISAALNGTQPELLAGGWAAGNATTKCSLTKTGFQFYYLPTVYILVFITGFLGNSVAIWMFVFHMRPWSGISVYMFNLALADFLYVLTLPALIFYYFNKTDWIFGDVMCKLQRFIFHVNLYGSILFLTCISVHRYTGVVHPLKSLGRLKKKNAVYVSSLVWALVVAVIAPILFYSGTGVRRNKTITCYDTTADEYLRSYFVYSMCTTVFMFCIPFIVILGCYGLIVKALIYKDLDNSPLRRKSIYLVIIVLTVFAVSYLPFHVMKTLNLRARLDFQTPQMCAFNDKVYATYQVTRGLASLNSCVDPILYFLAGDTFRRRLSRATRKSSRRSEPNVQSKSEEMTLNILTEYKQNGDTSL
T2 sequence (P51579 whole entry): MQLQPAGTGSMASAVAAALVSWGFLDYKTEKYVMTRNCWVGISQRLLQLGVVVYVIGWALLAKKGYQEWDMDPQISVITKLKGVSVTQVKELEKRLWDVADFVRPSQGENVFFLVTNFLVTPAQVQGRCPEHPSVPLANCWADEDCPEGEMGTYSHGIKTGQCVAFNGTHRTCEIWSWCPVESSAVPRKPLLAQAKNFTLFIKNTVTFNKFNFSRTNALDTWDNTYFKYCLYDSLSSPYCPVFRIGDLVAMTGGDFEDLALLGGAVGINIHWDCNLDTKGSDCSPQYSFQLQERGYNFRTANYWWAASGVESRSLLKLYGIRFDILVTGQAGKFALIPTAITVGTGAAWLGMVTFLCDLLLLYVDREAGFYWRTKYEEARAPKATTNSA
Sequence of P2Y1 (Meleagris gallopavo, UniProt P49652) (P49652 whole entry): as the sequence (P34996 whole entry) above, with T28S counted along it

Question: What does the source list for `Cc1nc(N=Nc2ccc(S(=O)(=O)O)cc2S(=O)(=O)O)c(COP(=O)(O)O)c(C=O)c1O` [PPADS, pyridoxalphosphate-6-azophenyl-2′,4′-disulfonic acid]?
Answer: block of ATP-evoked calcium transients [1, 13]: 87±5%; block of UTP-evoked calcium transients [1, 13]: 92±3%; block of ATP-evoked Ca2+ transients [2, 14]: 82±2%; block of UTP-evoked Ca2+ transients [2, 14]: 76±2%

Question: For `Nc1ncnc2c1ncn2[C@@H]1O[C@H](COP(=O)(O)O)[C@@H](O)[C@H]1O` [AMP], which “evoked calcium transients in olfactory epithelial slices” value [1] is on record?
Answer: never observed

Question: For `O=c1ccn([C@@H]2O[C@H](COP(=O)(O)OP(=O)(O)O)[C@@H](O)[C@H]2O)c(=O)[nH]1` [UDP], which Agonist activity [3] is on record?
Answer: (UTP, UDP inactive)

Question: Which Agonist activity [4] does the source give for `Nc1ncnc2c1ncn2[C@@H]1O[C@H](COP(=O)(O)CP(=O)(O)OP(=O)(O)O)[C@@H](O)[C@H]1O` [α,β-meATP, α,β-methylene ATP] here?
Answer: ATP > 2MeSATP > ADP; α,β-meATP inactive

Question: What about the Agonist activity [5] of the same molecule?
Answer: ATP; α,β-meATP inactive

Question: And the Agonist activity ([6]; cDNA from Rat insulinoma cells)?
Answer: (α,β-meATP inactive)

Question: What about the Agonist activity [7] of the same molecule?
Answer: 2MeSATP > ATP; α,β-meATP inactive

Question: What about the Agonist activity [8] of the same molecule?
Answer: α,β-meATP inactive

Question: What does the source list for `Nc1ncnc2c1ncn2[C@@H]1O[C@H](COP(=O)(O)OP(=O)(O)CP(=O)(O)O)[C@@H](O)[C@H]1O` [βγ-methylene ATP, β,γ-methylene ATP]?
Answer: agonist-evoked calcium transients in ORNs [1]: responded; ORNs with enhanced calcium transient amplitude ([9]; co-application of 10 μM βγ-MeATP and odors, 2 slices): 2/16; ORNs with suppressed calcium transient amplitude ([9]; co-application of 10 μM βγ-MeATP and odors, 6 slices): 12/16; change of amplitude in cells with no effect [9, 15]: 15±1%; enhancement of calcium transient amplitude [9, 15]: 168±44%; suppression of Ca2+ transient amplitude ([9]; co-application of 10 μM βγ-methylene ATP and odor, 2/16 cells as printed): 42±5%; reduction in the average amplitude of the Ca2+ transient, overall ([9]; co-application of 10 μM βγ-methylene ATP and odor, 16/16 cells): 25±11%; agonist-evoked calcium transients in sustentacular cells [2]: not the sustentacular cells

Question: With `O=c1ccn([C@@H]2O[C@H](COP(=O)(O)OP(=O)(O)OP(=O)(O)O)[C@@H](O)[C@H]2O)c(=O)[nH]1` [UTP] as the molecule, how does the “agonist-evoked calcium transients in ORNs” value [1] read?
Answer: evoked calcium transients

Question: And the Agonist activity [10]?
Answer: BzATP > ATP > 2MeSATP > ADP; UTP inactive

Question: And the “effect on co-application evoked calcium transient” value ([9]; P2Y selective agonists co-applied with odor)?
Answer: suppressed the co-application evoked calcium transient

Question: What about the Agonist activity ([6]; cDNA from Rat ileal myocytes) of the same molecule?
Answer: (UTP inactive)

Question: What about the Agonist activity [11] of the same molecule?
Answer: 2MeSATP > ATP > ADP; (UTP inactive)

Question: And the Agonist activity [3]?
Answer: (UTP, UDP inactive)

Question: What about the “agonist-evoked calcium transients in sustentacular cells” value [2] of the same molecule?
Answer: evoked calcium transients

Question: What about the Agonist activity [12] of the same molecule?
Answer: 2MeSATP > ADP > ATP; (UTP inactive)

Question: With `Nc1ncnc2c1ncn2[C@@H]1O[C@H](CO)[C@@H](O)[C@H]1O` [Adenosine] as the molecule, how does the “evoked calcium transients in olfactory epithelial slices” value [1] read?
Answer: never observed
